{"source": "paper PMC5778071", "about": "“Development of matrix metalloproteinase-targeted probes for lung inflammation detection with positron emission tomography” (Scientific Reports, 2018)", "key": {"recombinant human MMP-13": {"molecular_target": "T1, recombinant human MMP-13 (Homo sapiens, UniProt P45452)", "T1 construct": "purchased Anaspec AS72011", "assay": "Competitive fluorogenic enzyme activity assay, MMP-13", "format": "biochemical", "conditions": "fluorogenic substrate 5 μM, 5 nM enzyme, 30 min; read-out: IC50 toward MMP-13", "description": "(§1) Determination of the IC50 toward human MMP-2, MMP-9, MMP-12 and MMP-13 was performed by a competitive enzyme activity assay according to a literature procedure. The assay was performed by incubating 5 μM of the synthesized fluorogenic peptide substrate Mca-Pro-Leu-Gly-Leu-Dpa(Dnp)-Ala-Arg-NH2 with 5 nM recombinant human MMP-2 (AS72005, Anaspec Inc., CA, USA), MMP-9 (911-MP, R&D Systems, MN, USA), MMP-12 (917-MP, R&D Systems) and MMP-13 (AS72011, Anaspec) along with various concentrations of ML5, I-ML5, PFB, PFP, IPFB, and IPFP (0.2–365 nM) in a buffer (pH 7.5, 50 mM tris(hydroxymethyl)aminomethane, 10 mM calcium chloride, 150 mM sodium chloride, and 0.01% Brij-35) containing 5% dimethyl sulfoxide. The increase in fluorescence over time was measured using a SpectraMax M2e microplate reader (Molecular Devices Inc., CA, USA) with an excitation wavelength of 325 nm and an emission wavelength of 395 nm. The fluorescence intensity after 30 min was plotted as a function of the concentration of each of the compounds on a logarithmic scale to produce an inhibition curve that was subsequently fit with a sigmoidal function by a least squares method. The IC50 values were calculated from the inhibition curves using GraphPad Prism 6 (GraphPad Software, Inc., CA, USA)."}, "recombinant human MMP-12": {"molecular_target": "T2, recombinant human MMP-12 (Homo sapiens, UniProt P39900)", "T2 construct": "purchased R&D Systems 917-MP", "T2 sequence (P39900 106-470)": "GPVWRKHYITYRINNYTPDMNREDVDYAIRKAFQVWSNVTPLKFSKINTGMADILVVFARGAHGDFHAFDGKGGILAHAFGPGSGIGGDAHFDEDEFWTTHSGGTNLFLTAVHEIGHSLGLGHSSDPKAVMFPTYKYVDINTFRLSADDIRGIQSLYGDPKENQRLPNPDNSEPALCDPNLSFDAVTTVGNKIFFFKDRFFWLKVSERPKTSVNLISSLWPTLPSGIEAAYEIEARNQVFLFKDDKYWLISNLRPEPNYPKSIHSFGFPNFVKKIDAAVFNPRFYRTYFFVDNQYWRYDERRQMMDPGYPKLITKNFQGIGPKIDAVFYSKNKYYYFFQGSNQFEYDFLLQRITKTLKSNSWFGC", "assay": "Competitive fluorogenic enzyme activity assay, MMP-12", "format": "biochemical", "conditions": "fluorogenic substrate 5 μM, 5 nM enzyme, 30 min; read-out: IC50 toward MMP-12", "description": "Determination of the IC50 toward human MMP-2, MMP-9, MMP-12 and MMP-13 was performed by a competitive enzyme activity assay according to a literature procedure. […] The increase in fluorescence over time was measured using a SpectraMax M2e microplate reader (Molecular Devices Inc., CA, USA) with an excitation wavelength of 325 nm and an emission wavelength of 395 nm. The fluorescence intensity after 30 min was plotted as a function of the concentration of each of the compounds on a logarithmic scale to produce an inhibition curve that was subsequently fit with a sigmoidal function by a least squares method. The IC50 values were calculated from the inhibition curves using GraphPad Prism 6 (GraphPad Software, Inc., CA, USA)."}, "MMP-12": {"tested_on": "MMP-12", "set-up": "method as in PMID 25438884", "conditions": "fluorogenic inhibition assay; cited from earlier work"}, "recombinant human MMP-9": {"molecular_target": "T3, recombinant human MMP-9 (Homo sapiens, UniProt P14780)", "T3 construct": "purchased R&D Systems 911-MP", "T3 sequence (P14780 94-707)": "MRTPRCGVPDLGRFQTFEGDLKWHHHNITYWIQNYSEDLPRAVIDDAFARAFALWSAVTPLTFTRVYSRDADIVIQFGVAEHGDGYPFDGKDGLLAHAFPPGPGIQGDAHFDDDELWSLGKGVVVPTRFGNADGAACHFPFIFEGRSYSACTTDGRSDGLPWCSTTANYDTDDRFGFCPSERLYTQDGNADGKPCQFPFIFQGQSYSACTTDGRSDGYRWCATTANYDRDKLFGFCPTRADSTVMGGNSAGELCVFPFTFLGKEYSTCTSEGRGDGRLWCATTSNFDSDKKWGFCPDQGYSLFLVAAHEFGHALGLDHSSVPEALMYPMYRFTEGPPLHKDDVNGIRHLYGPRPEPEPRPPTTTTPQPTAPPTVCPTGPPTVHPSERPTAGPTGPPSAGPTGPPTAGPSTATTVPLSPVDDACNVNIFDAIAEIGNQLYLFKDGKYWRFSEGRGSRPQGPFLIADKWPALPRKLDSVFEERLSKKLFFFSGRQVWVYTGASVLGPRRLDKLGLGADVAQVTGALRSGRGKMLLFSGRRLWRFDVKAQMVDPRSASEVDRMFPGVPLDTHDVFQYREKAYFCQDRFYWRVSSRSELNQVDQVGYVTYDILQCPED", "assay": "Competitive fluorogenic enzyme activity assay, MMP-9", "format": "biochemical", "conditions": "fluorogenic substrate 5 μM, 5 nM enzyme, 30 min; read-out: IC50 toward MMP-9", "description": "as §1"}, "MMP-9": {"tested_on": "MMP-9", "set-up": "method as in PMID 25438884", "conditions": "fluorogenic inhibition assay; cited from earlier work"}, "recombinant human MMP-2": {"molecular_target": "T4, recombinant human MMP-2 (Homo sapiens, UniProt P08253)", "T4 construct": "purchased Anaspec Inc. AS72005", "T4 sequence (P08253 110-660)": "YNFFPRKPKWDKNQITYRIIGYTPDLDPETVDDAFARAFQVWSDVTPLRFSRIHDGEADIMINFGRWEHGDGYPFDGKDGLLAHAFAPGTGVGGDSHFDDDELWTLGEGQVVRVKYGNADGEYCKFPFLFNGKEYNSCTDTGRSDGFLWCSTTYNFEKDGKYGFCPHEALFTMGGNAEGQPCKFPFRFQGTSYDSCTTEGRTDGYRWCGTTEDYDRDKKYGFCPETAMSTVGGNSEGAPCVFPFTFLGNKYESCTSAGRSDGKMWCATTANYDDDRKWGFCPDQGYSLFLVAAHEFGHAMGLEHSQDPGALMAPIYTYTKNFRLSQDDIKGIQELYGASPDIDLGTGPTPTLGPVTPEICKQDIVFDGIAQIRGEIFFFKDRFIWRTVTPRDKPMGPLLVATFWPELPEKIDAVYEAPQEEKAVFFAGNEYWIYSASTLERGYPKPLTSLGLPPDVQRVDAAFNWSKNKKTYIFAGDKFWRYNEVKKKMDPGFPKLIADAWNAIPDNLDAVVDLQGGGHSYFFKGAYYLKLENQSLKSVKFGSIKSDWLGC", "assay": "Competitive fluorogenic enzyme activity assay, MMP-2", "format": "biochemical", "conditions": "fluorogenic substrate 5 μM, 5 nM enzyme, 30 min; read-out: IC50 toward MMP-2", "description": "as §1"}}}
{"smiles": "CC(C)C[C@H](CC(=O)NO)C(=O)N[C@@H](Cc1ccccc1)C(=O)N[C@@H](CCCCN)C(N)=O", "note": "[ML5, reference compound]", "values": [{"measurement": "IC50", "setting": "recombinant human MMP-13", "result": "22.4 ± 8.1", "unit": "nM"}, {"measurement": "IC50", "setting": "recombinant human MMP-12", "result": "2.8 ± 0.4", "unit": "nM"}, {"measurement": "IC50", "setting": "MMP-12", "result": 2, "unit": "nM"}, {"measurement": "IC50", "setting": "recombinant human MMP-9", "result": "37.9 ± 5.2", "unit": "nM"}, {"measurement": "IC50", "setting": "MMP-9", "result": 19.5, "unit": "nM"}, {"measurement": "IC50", "setting": "recombinant human MMP-2", "result": "9.6 ± 4.7", "unit": "nM"}]}
